Results from patent US9567347B2, “Use of small molecule inhibitors targeting the interaction between RAC GTPase and p67(phox)” (CHILDREN'S HOSPITAL MEDICAL CENTER, priority 2012, dated 2017).
Where two headings read alike, the source gives them in different places.

Key:
[1] = tested on: primary human neutrophils; experiment: luminol chemiluminescence assay of fMLP-induced ROS production; assay type: cell-based
Experimental: HL-60 cells were propagated in RPMI 1640 medium containing 10% heat inactivated fetal bovine serum, 2 mM L-glutamine, 100 U/mL penicillin/streptomycin at 37° C. in air containing 5% CO2. For differentiation, HL-60 cells were cultured in 1.3% dimethyl sulfoxide (DMSO) as previously described (Servant, G., et al. (1999) Mol Biol Cell 10, 1163-1178, hereby incorporated by reference in its entirety). Primary murine neutrophils were isolated from C57Bl/6 mouse bone marrow according to a published protocol (Filippi et al., (2004) Nat Immunol 5, 744-751, hereby incorporated by reference in its entirety) using a discontinuous Percoll (Pharmacia) gradient and were utilized immediately in experiments. Human neutrophils were obtained from fresh blood (IRB #2010-1855, Cincinnati Children's Hospital medical Center) following a well established protocol using density gradient separation from whole blood (Oh et al. (2008) J Vis Exp., 17, pii: 745, hereby incorporated by reference in its entirety). […]
Chemiluminescence was measured using GloMax®-96 Microplate Luminometer (Promega) (Tarpey et al., (2004) Am J Physiol Regul Integr Comp Physiol 286: R431-R444, hereby incorporated by reference in its entirety). […]

[2] = tested on: dHL-60 cells; experiment: antioxidant (ROS scavenger) test in dHL-60 cells pre-stimulated with fMLP; assay type: cell-based, human; conditions: fMLP 30 min prior to treatment
Experimental: (A) Apoptosis analysis by FACS of HL-60 cells treated with compound or vehicle control for 2 hours prior to 7-AAD and Annexin V staining. (B) HL-60 cells from A were harvested and lysates were immunoblotted for levels of pPAK, and actin was used as a control for loading. (C) F-actin reorganization in freshly isolated fMLP-stimulated primary murine neutrophils was analyzed. […] Cells were exposed to a 10 μM dose of Phox-I1, Phox-I2, and Analog 13, and 200 nM nocodazole. (D) The effect of Phox-I on NOX4 mediated ROS production was tested in primary murine neutrophils transfected with a NOX4 expressing plasmid. 10 μM Phox-I1 was applied to the cells for 30 min prior to ROS assay by luminol chemiluminescence in the presence of HRP. The fMLP-stimulated ROS activity in the presence or absence of 10 uM Phox-I1 was measured in parallel. (E) The antioxidant abilities of these lead compounds were tested by prestimulating dHL-60 cells with fMLP for 30 minutes prior to treatment with Phox-I1 or Phox-I2. Levels of superoxide were analyzed by DCFDA assay and FACS. NAC, apocyanin, DPI, and NSC23766 treated cells served as controls. […] (G) For stability assay, DMSO-differentiated HL-60 cells were treated with 20 μM dose of compound for the indicated time period prior to fMLP stimulation and DCFDA ROS production assay by FACS analysis.
Phox-I1 was then applied to primary murine neutrophils expressing the constitutively active NOX4. […] To further rule out that Phox-I1 and Phox-I2 may simply act as scavengers of ROS, dHL-60 cells were pre-stimulated with fMLP for 30 min prior to treatment with Phox-I1 or Phox-I2.

[3] = tested on: dHL-60 cells; experiment: stability in culture over time, DCFDA ROS assay; assay type: cell-based, human; conditions: 20 μM, 6 hr treatment window
Experimental: (A) Apoptosis analysis by FACS of HL-60 cells treated with compound or vehicle control for 2 hours prior to 7-AAD and Annexin V staining. (B) HL-60 cells from A were harvested and lysates were immunoblotted for levels of pPAK, and actin was used as a control for loading. (C) F-actin reorganization in freshly isolated fMLP-stimulated primary murine neutrophils was analyzed. […] Cells were exposed to a 10 μM dose of Phox-I1, Phox-I2, and Analog 13, and 200 nM nocodazole. (D) The effect of Phox-I on NOX4 mediated ROS production was tested in primary murine neutrophils transfected with a NOX4 expressing plasmid. 10 μM Phox-I1 was applied to the cells for 30 min prior to ROS assay by luminol chemiluminescence in the presence of HRP. The fMLP-stimulated ROS activity in the presence or absence of 10 uM Phox-I1 was measured in parallel. (E) The antioxidant abilities of these lead compounds were tested by prestimulating dHL-60 cells with fMLP for 30 minutes prior to treatment with Phox-I1 or Phox-I2. Levels of superoxide were analyzed by DCFDA assay and FACS. NAC, apocyanin, DPI, and NSC23766 treated cells served as controls. […]

COc1ccc2c(c1)C1C=C(c3ccccc3)NN1C(c1cccc([N+](=O)[O-])c1)O2 (stereo not drawn) [Phox-I1] was tested, and the IC50 ([1]; Neutrophil) was roughly 8 µM, the “levels of superoxide already produced” value [2] was “do not affect” and the “efficacy of ROS inhibition over time in culture” value [3] was “no significant change in efficacy”.

For O=[N+]([O-])c1cccc(C2Nc3ccc([N+](=O)[O-])cc3C3C=CCC32)c1 (stereo not drawn) [Phox-I2], the IC50 [1] was roughly 6 µM, the “levels of superoxide already produced” value [2] was “do not affect” and the “efficacy of ROS inhibition over time in culture” value [3] was “retained some efficacies”.
